Eleven compounds from patent publication US20250034150A1, “BTK INHIBITORS” (BIOGEN MA INC., priority 2021, published 2025) can be followed below.

Structures are written as SMILES. Where two headings read alike, the source gives them in different places.

For assay [1], the system named is CD69 expression on CD19+ B cells in human whole blood. Briefly: In Vitro whole blood CD69 Assay. Conditions: B-cell, read-out: In Vitro HWB CD69 Assay IC50 Score. The assay is classed as cell-based. The procedure:
Human heparinized venous blood from health donors was aliquoted into 96-well plate and “spiked” with serial dilutions of formula I compounds in DMSO or with DMSO without drug. The final concentration of DMSO in all wells was 0.1%. The plate was incubated at 37° C. for 30 min. Drug-containing samples were stimulated with 0.1 μg/mL mouse anti-human IgD-dextran (1A62) or 20 μg/mL polyclonal rabbit F(ab′)2 anti-human IgD. Phosphate-buffered saline (PBS) was added to the negative control unstimulated sample and the plates were incubated overnight (18 to 22 hours) at 37° C. Cells were stained with fluorochrome-conjugated anti-CD19 and anti-CD69 antibodies. Lyse/fix solution was used to remove red blood cells by hypotonic lysis and to fix the remaining cells, which were then analyzed by flow cytometry. CD19+ B cells were gated and analyzed for CD69 expression.

The target in assay [2] is T1, BTK (Homo sapiens, UniProt Q06187).
T1 construct: purchased Upstate 14-552
T1 sequence (Q06187 whole entry): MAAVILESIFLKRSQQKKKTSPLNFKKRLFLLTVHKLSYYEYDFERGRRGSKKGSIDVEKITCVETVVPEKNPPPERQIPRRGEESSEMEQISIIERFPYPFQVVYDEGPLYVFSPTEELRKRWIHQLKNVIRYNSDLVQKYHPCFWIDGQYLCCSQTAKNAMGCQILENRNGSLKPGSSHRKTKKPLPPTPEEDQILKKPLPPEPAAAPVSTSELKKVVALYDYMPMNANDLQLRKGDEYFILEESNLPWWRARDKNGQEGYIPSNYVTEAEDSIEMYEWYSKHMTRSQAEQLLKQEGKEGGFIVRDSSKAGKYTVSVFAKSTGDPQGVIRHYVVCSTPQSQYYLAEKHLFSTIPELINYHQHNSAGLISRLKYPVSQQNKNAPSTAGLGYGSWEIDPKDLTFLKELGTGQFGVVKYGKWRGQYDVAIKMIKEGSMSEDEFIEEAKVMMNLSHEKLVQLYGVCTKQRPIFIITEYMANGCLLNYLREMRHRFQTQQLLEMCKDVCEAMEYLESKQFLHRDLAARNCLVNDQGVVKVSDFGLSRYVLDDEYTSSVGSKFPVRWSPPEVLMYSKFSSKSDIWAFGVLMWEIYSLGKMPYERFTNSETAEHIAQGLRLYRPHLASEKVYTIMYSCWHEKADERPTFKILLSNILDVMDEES
Briefly: In Vitro BTK Kinase Assay: Btk-PolyGAT-LS Assay. The assay is classed as biochemical. To be noted: active BTK enzyme 0.25 nM, polyGAT 100 nM, 30 minutes, TRF readout; read-out: In Vitro BTK Kinase Assay IC50 Score. The method, boiled down: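 IC50 values came from a four-parameter fit, with DMSO controls as 100% activity and EDTA controls as 0%. The signal was TR-FRET from a Tb-PY20 antibody binding fluorescein-polyGAT (100 nM) phosphorylated by 0.25 nM BTK. Kinase reactions used 10 μM ATP, a 4-fold compound titration, and ran 30 minutes before EDTA stop.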

[3] abbreviates: human heparinized whole blood, anti-human IgD stimulation overnight, CD19+ B cells, flow cytometry.

`Cn1cc(-c2cn3nccc3c(-c3ccc(CNC(=O)c4nc(C(C)(C)CF)no4)c(F)c3)n2)cn1` [Example 13, 3-(1-fluoro-2-methylpropan-2-yl)-N-(2-fluoro-4-(6-(1-methyl-1H-pyrazol-4-yl)pyrazolo[1,5-a]pyrazin-4-yl)benzyl)-1,2,4-oxadiazole-5-carboxamide]: the IC50 (usually the concentration at which inhibition is half-maximal) was below 1000 nM in assay [1] (setting [3]) and below 1 nM in assay [2].
For the compound `Cn1cc(-c2cn3ncnc3c(N3CCC(CNC(=O)c4noc(C(C)(C)C)n4)CC3)n2)cn1` [Example 73, 5-(tert-butyl)-N-((1-(6-(1-methyl-1H-pyrazol-4-yl)-[1,2,4]triazolo[1,5-a]pyrazin-8-yl)piperidin-4-yl)methyl)-1,2,4-oxadiazole-3-carboxamide], the IC50 in assay [1] (setting [3]) lay within 1000 to 10000 nM; in assay [2], 1 to 10 nM.
`Cn1cc(-c2cn3nccc3c(N3CC[C@@H](CNC(=O)c4noc(C(C)(C)C)n4)[C@@H](F)C3)n2)cn1` (single isomer, unassigned) [Example 156]: the results for the IC50 in assay [1] (setting [3]) and in assay [2] were below 1000 nM and 1 to 10 nM, respectively.
`Cn1cc(-c2cn3nccc3c(-c3ccc(CNC(=O)c4noc(C(C)(C)C)n4)c(C(F)F)c3)n2)cn1` [Example 86, 5-(tert-butyl)-N-(2-(difluoromethyl)-4-(6-(1-methyl-1H-pyrazol-4-yl)pyrazolo[1,5-a]pyrazin-4-yl)benzyl)-1,2,4-oxadiazole-3-carboxamide]: the IC50 in assay [1] (setting [3]) was below 1000 nM; in assay [2], below 1 nM.
The corresponding values for `Cc1cc(-c2nc(-c3cnn(C)c3)cn3nccc23)ccc1CN1CCN(CC(C)(C)C)CC1=O` [Example 31, 1-(2-methyl-4-(6-(1-methyl-1H-pyrazol-4-yl)pyrazolo[1,5-a]pyrazin-4-yl)benzyl)-4-neopentylpiperazin-2-one] are 1000 to 10000 nM and 1 to 10 nM.
`Cn1cc(-c2cn3nccc3c(N3CCC(CN4CCN(CC(C)(C)C)CC4=O)CC3)n2)cn1` [Example 172, 1-((1-(6-(1-methyl-1H-pyrazol-4-yl)pyrazolo[1,5-a]pyrazin-4-yl)piperidin-4-yl)methyl)-4-neopentylpiperazin-2-one]: the IC50 in assay [1] (setting [3]) fell in the range of 1000 to 10000 nM; in assay [2], 10 to 1000 nM.
As for `Cn1cc(-c2cc(-c3ccc(CNC(=O)c4noc(C(C)(C)C)n4)c(F)c3)c3ccnn3c2)cn1` [Example 68, 5-(tert-butyl)-N-(2-fluoro-4-(6-(1-methyl-1H-pyrazol-4-yl)pyrazolo[1,5-a]pyridin-4-yl)benzyl)-1,2,4-oxadiazole-3-carboxamide], the results for the IC50 in assay [1] (Homo sapiens) and in assay [2] were below 1000 nM and below 1 nM, respectively.
Turning to `Cn1cc(-c2cn3nccc3c(N3CCC(C)(CNC(=O)c4nc(C(C)(C)C)no4)CC3)n2)cn1` [Example 47, 3-(tert-butyl)-N-((4-methyl-1-(6-(1-methyl-1H-pyrazol-4-yl)pyrazolo[1,5-a]pyrazin-4-yl)piperidin-4-yl)methyl)-1,2,4-oxadiazole-5-carboxamide], the results for the IC50 in assay [1] (setting [3]) and in assay [2] were 1000 to 10000 nM and 1 to 10 nM, respectively.
For `Cn1cc(-c2cn3nccc3c(-c3ccc(CNC(=O)c4cn(C(C)(C)C)nn4)c(F)c3)n2)cn1` [Example 9, 1-(tert-butyl)-N-(2-fluoro-4-(6-(1-methyl-1H-pyrazol-4-yl)pyrazolo[1,5-a]pyrazin-4-yl)benzyl)-1H-1,2,3-triazole-4-carboxamide], in that order: below 1000 nM and below 1 nM.
On to `Cn1cc(-c2cn3nccc3c(-c3ccc(CNC(=O)c4cnn(C(C)(C)C)n4)cc3F)n2)cn1` [Example 113, 2-(tert-butyl)-N-(3-fluoro-4-(6-(1-methyl-1H-pyrazol-4-yl)pyrazolo[1,5-a]pyrazin-4-yl)benzyl)-2H-1,2,3-triazole-4-carboxamide], for which the values for the IC50 in assay [1] (setting [3]) and in assay [2] were 1000 to 10000 nM and 1 to 10 nM, respectively.
The corresponding values for `Cn1cc(-c2cn3nccc3c(-c3ccc(CN4CCN(CC(C)(C)C)CC4=O)cc3)n2)cn1` [Example 33, 1-(4-(6-(1-methyl-1H-pyrazol-4-yl)pyrazolo[1,5-a]pyrazin-4-yl)benzyl)-4-neopentylpiperazin-2-one] are 1000 to 10000 nM and 1 to 10 nM.
